Reference: patent US8962608B2, “Cycloalkylnitrile pyrazole carboxamides as janus kinase inhibitors” (Merck Sharp & Dohme Corp., priority 2011, dated 2015)

target: JAK1 (recombinant purified GST-tagged catalytic domain) (Homo sapiens (Human), UniProt P23458); test: biochemical
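Note: biochemical assay with HTRF read-out.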

Chain of JAK1 (recombinant purified GST-tagged catalytic domain) (P23458 875-1153): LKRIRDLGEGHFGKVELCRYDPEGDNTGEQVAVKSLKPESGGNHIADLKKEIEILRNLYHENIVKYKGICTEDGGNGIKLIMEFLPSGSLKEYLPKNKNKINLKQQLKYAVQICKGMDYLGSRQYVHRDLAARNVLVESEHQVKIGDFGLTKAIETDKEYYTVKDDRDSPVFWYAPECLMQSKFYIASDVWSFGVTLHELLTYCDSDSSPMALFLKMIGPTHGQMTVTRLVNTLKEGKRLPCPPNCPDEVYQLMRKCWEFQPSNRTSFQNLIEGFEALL

IC50	SMILES
0.5 nM	N#C[C@H]1C[C@@H](N2CCC2)CC[C@@H]1n1cc(C(N)=O)c(Nc2ccc(OC(F)F)cc2)n1 (single isomer, unassigned) [Example 28-118, 1-[(1S,2S,4S or 1R,2R,4R)-4-azetidin-1-yl-2-cyanocyclohexyl]-3-{[4-(difluoromethoxy)phenyl]amino}-1H-pyrazole-4-carboxamide]
2 nM	CC(C)NC(=O)O[C@@H]1CCC(n2cc(C(N)=O)c(Nc3ccc(F)cc3)n2)[C@@H](C#N)C1 (mixture of isomers) [Example 34-4, (1R,3S,4S and 1S,3R,4R)-4-{4-carbamoyl-3-[(4-fluorophenyl)amino]-1H-pyrazol-1-yl}-3-cyanocyclohexyl propan-2-ylcarbamate]
180 nM	N#C[C@H]1C[C@@H](C(=O)N[C@@H](C2CC2)C(F)(F)F)CC[C@@H]1n1cc(C(N)=O)c(Nc2ccc(Cl)cc2)n1 (single isomer, unassigned) [Example 35-24, 3-[(4-chlorophenyl)amino]-1-[(1S,2S,4S or 1R,2R,4R)-2-cyano-4-{[(1S)-1-cyclopropyl-2,2,2-trifluoroethyl]carbamoyl}cyclohexyl]-1H-pyrazole-4-carboxamide]
1 nM	CN([C@H]1CCC(n2cc(C(N)=O)c(Nc3ccc(Cl)cc3)n2)[C@@H](C#N)C1)C(C)(C)C1CC1 (single isomer, unassigned) [Example 28-229, 3-[(4-chlorophenyl)amino]-1-{(1S,2S,4S or 1R,2R,4R)-2-cyano-4-[(1-cyclopropyl-1-methylethyl)(methyl)amino]cyclo-hexyl}-1H-pyrazole-4-carboxamide]
0.35 nM	CC(C)N[C@@H]1CC[C@H](n2cc(C(N)=O)c(Nc3ccc(S(=O)(=O)C(F)(F)F)cc3)n2)[C@@H](C#N)C1 (single isomer, unassigned) [Example 28-175, 1-{(1S,2S,4R or 1R,2R,4S)-2-cyano-4-[(1-methylethyl)amino]cyclohexyl}-3-({4-[(trifluoro-methyl)sulfonyl]phenyl}amino)-1H-pyrazole-4-carboxamide]
1 nM	COCC(C)N[C@H]1CCC(n2cc(C(N)=O)c(Nc3ccc(Cl)cc3)n2)[C@@H](C#N)C1 (single isomer, unassigned) [Example 28-237, 3-[(4-chlorophenyl)amino]-1-[(1S,2S,4S or 1R,2R,4R)-2-cyano-4-{[(1S)-2-methoxy-1-methylethyl]amino}cyclohexyl]-1H-pyrazole-4-carboxamide]
0.6 nM	N#C[C@H]1C[C@H](N2CC3(CCC3)C2)CC[C@@H]1n1cc(C(N)=O)c(Nc2ccc(C(F)(F)F)cc2)n1 (single isomer, unassigned) [Example 28-24, 1-[(1S,2S,4R or 1R,2R,4S)-4-(2-azaspiro[3.3]hept-2-yl)-2-cyanocyclohexyl]-3-{[4-(trifluoromethyl)phenyl]amino}-1H-pyrazole-4-carboxamide]
3 nM	C[C@H]1C[C@H](C)N1[C@H]1CC[C@H](n2cc(C(N)=O)c(Nc3ccc(C(F)(F)F)cc3)n2)[C@@H](C#N)C1 (single isomer, unassigned) [Example 28-21, 1-{(1S,2S,4S or 1R,2R,4R)-2-cyano-4-[(2S,4S or 2R,4R)-2,4-dimethylazetidin-1-yl]cyclohexyl}-3-{[4-(trifluoromethyl)phenyl]amino}-1H-pyrazole-4-carboxamide]
4 nM	N#C[C@H]1C[C@@H](NC2CCOCC2)CCC1n1cc(C(N)=O)c(Nc2ccc(Cl)cc2)n1 (single isomer, unassigned) [Example 28-218, 3-[(4-chlorophenyl)amino]-1-[(1S,2S,4S or 1R,2R,4R)-2-cyano-4-(tetrahydro-2H-pyran-4-ylamino)cyclohexyl]-1H-pyrazole-4-carboxamide]
3 nM	N#C[C@H]1C[C@@H](C(=O)N2CCC(F)(F)C2)CC[C@@H]1n1cc(C(N)=O)c(Nc2ccc(Cl)cc2)n1 (single isomer, unassigned) [Example 35-28, 3-[(4-chlorophenyl)amino]-1-{(1S,2S,4S or 1R,2R,4R)-2-cyano-4-[(3,3-difluoropyrrolidin-1-yl)carbonyl]cyclohexyl}-1H-pyrazole-4-carboxamide]
1 nM	CN(C)[C@H]1CC[C@H](n2cc(C(N)=O)c(Nc3ccc(F)cc3)n2)[C@@H](C#N)C1 (single isomer, unassigned) [Example 28-102, 1-[(1S,2S,4S or 1R,2R,4R)-2-cyano-4-(dimethylamino)cyclohexyl]-3-[(4-fluorophenyl)amino]-1H-pyrazole-4-carboxamide]
1 nM	C[C@]1(O)CC[C@H](n2cc(C(N)=O)c(Nc3ccc(Cl)cc3)n2)[C@@H](C#N)C1 (single isomer, unassigned) [Example 32-10, 3-[(4-chlorophenyl)amino]-1-[(1S,2S,4S or 1R,2R,4R)-2-cyano-4-hydroxy-4-methylcyclohexyl]-1H-pyrazole-4-carboxamide]
2 nM	CN(CCC(F)(F)F)[C@H]1CC[C@H](n2cc(C(N)=O)c(Nc3ccc(S(=O)(=O)C(F)(F)F)cc3)n2)[C@@H](C#N)C1 (single isomer, unassigned) [Example 28-171, 1-{(1S,2S,4S or 1R,2R,4R)-2-cyano-4-[methyl(3,3,3-tri-fluoropropyl)amino]cyclohexyl}-3-({4-[(trifluoromethyl)sulfonyl]phen-yl}amino)-1H-pyrazole-4-carboxamide]
0.15 nM	N#C[C@@H]1CCCCC1n1cc(C(N)=O)c(Nc2ccc(S(=O)(=O)CC(F)(F)F)cc2)n1 (single isomer, unassigned) [Example 43-8, 1-[(1S,2S or 1R,2R)-2-cyanocyclohexyl]-3-({4-[(2,2,2-trifluoroethyl)sulfonyl]phenyl}amino)-1H-pyrazole-4-carboxamide]
2 nM	C[C@]1(O)CC[C@H](n2cc(C(N)=O)c(Nc3ccc(Cl)c(F)c3)n2)[C@@H](C#N)C1 (single isomer, unassigned) [Example 32-17, 3-[(4-chloro-3-fluorophenyl)amino]-1-[(1S,2S,4S or 1R,2R,4R)-2-cyano-4-hydroxy-4-methylcyclohexyl]-1H-pyrazole-4-carboxamide]
11 nM	C[C@H](N[C@@H]1CC[C@H](n2cc(C(N)=O)c(Nc3ccc(OC(F)F)nc3)n2)[C@@H](C#N)C1)C1CC1 (single isomer, unassigned) [Example 28-13, 1-[(1S,2S,4R or 1R,2R,4S)-2-cyano-4-{[(1S)-1-cyclopropylethyl]amino}cyclo-hexyl]-3-{[6-(difluoromethoxy)pyridin-3-yl]amino}-1H-pyrazole-4-carboxamide]
0.22 nM	N#C[C@H]1CC(NC2COC2)CC[C@@H]1n1cc(C(N)=O)c(Nc2ccc(S(=O)(=O)C(F)(F)F)cc2)n1 (single isomer, unassigned) [Example 28-155, 1-[(1S,2S or 1R,2R)-2-cyano-4-(oxetan-3-ylamino)cyclohexyl]-3-({4-[(trifluoromethyl)sulfonyl]phen-yl}amino)-1H-pyrazole-4-carboxamide]
0.3 nM	N#C[C@H]1C[C@H](N2CC(O)C2)CC[C@@H]1n1cc(C(N)=O)c(Nc2ccc(S(=O)(=O)C(F)(F)F)cc2)n1 (single isomer, unassigned) [Example 28-150, 1-[(1S,2S,4R or 1R,2R,4S)-2-cyano-4-(3-hydroxyazetidin-1-yl)cyclohexyl]-3-({4-[(trifluoro-methyl)sulfonyl]phenyl}amino)-1H-pyrazole-4-carboxamide]

The remaining lines, values behind:

SMILES	IC50
N#C[C@H]1C[C@H](O)CC[C@@H]1n1cc(C(N)=O)c(Nc2ccc(Cl)c(F)c2)n1 (single isomer, unassigned) [Example 25-3, 3-[(4-chloro-3-fluorophenyl)amino]-1-[(1S,2S,4R or 1R,2R,4S)-2-cyano-4-hydroxycyclohexyl]-1H-pyrazole-4-carboxamide]	1 nM
N#C[C@H]1CCCC[C@@H]1n1cc(C(N)=O)c(Nc2cc(F)cc(Cl)c2)n1 (single isomer, unassigned) [Example 17-51, 3-[(3-chloro-5-fluorophenyl)amino]-1-[(1S,2S or 1R,2R)-2-cyanocyclohexyl]-1H-pyrazole-4-carboxamide]	7 nM
N#C[C@H]1CCCC[C@@H]1n1cc(C(N)=O)c(Nc2ccc(OC(F)F)cc2)n1 (single isomer, unassigned) [Example 17-103, 1-[(1S,2S or 1R,2R)-2-cyanocyclohexyl]-3-{[4-(difluoromethoxy)phenyl]amino}-1H-pyrazole-4-carboxamide]	0.7 nM
CC(C)(C)NC(=O)c1cncc(Nc2nn([C@H]3CCCC[C@@H]3C#N)cc2C(N)=O)c1 (single isomer, unassigned) [Example 17-71, N-tert-butyl-5-({4-carbamoyl-1-[(1R,2R or 1S,2S)-2-cyanocyclohexyl]-1H-pyrazol-3-yl}amino)pyridine-3-carboxamide]	60 nM
CO/N=C/c1ccc(Nc2nn([C@H]3CCCC[C@@H]3C#N)cc2C(N)=O)cc1 (single isomer, unassigned) [Example 39, 1-[(1S,2S or 1R, 2R)-2-Cyanocyclohexyl]-3-({4-[(methoxyimino)methyl]phenyl}amino)-1H-pyrazole-4-carboxamide]	0.45 nM
CC(C)(CF)c1ccc(Nc2nn([C@H]3CC[C@@H](O)C[C@@H]3C#N)cc2C(N)=O)cc1 (single isomer, unassigned) [Example 25-9, 1-[(1S,2S,4R or 1R,2R,4S)-2-cyano-4-hydroxycyclohexyl]-3-{[4-(2-fluoro-1,1-dimethylethyl)phenyl]amino}-1H-pyrazole-4-carboxamide]	1 nM
CN(C)[C@@H]1CCC(n2cc(C(N)=O)c(Nc3ccc(S(=O)(=O)C(F)(F)F)cc3)n2)[C@@H](C#N)C1 (mixture of isomers) [Example 27-7, 1-[(1S,2S,4R and 1R,2R,4S)-2-cyano-4-(dimethylamino)cyclohexyl]-3-({4-[(trifluoromethyl)sulfonyl]phenyl}amino)-1H-pyrazole-4-carboxamide]	0.4 nM
N#C[C@H]1CCCC[C@@H]1n1cc(C(N)=O)c(Nc2ccc([C@H](O)C(F)(F)F)nc2)n1 (single isomer, unassigned) [Example 17-50, 1-[(1S,2S or 1R,2R)-2-cyanocyclohexyl]-3-({6-[(1S or 1R)-2,2,2-trifluoro-1-hydroxyethyl]pyridin-3-yl}amino)-1H-pyrazole-4-carboxamide]	0.2 nM
